Assay results from ChEMBL document CHEMBL1857833, “Screening and optimization of specific chemical series against human African Trypanosomiasis (HAT)”.
Values after ≈ are worked out from the molar mass of the structure shown. Values joined by “and” are separate entries in the source; they are usually repeats but may differ in a detail not shown here. Equal entries are not always repeated.

Test system: Trypanosoma brucei
Test: DNDI: Inhibition of Human African Trypanosomiasis, SBRI 427, in vitro
Format: functional, organism-based
[1] = Trypanosoma brucei, SBRI 427, read-out: IC50

## CSc1ccc(Oc2ccc(/C(=N/O)NCc3ccccc3F)cn2)cc1
[1]
  IC50: 1.6 µg/mL (≈ 4.17 µM)

## CCOc1ccccc1-c1nc(CNC2CCCCCCCCCCC2)co1
  IC50: 1.37 µg/mL (≈ 3.56 µM)
[1]
  IC50: 1.51 µg/mL (≈ 3.93 µM)

## CC1CCC(N/C(=N\O)c2ccc(Oc3ccc(Cl)cc3)nc2)CC1 (stereo unspecified)
[1]
  IC50: 1.42 µg/mL (≈ 3.95 µM)

## COc1ccc(-c2nc(CNC3CCN(Cc4ccccc4)CC3)co2)cc1
[1]
  IC50: 2.92 µg/mL (≈ 7.74 µM)

## CCOc1ccc(-c2nc(CNC(C)C3CCCCC3)co2)cc1 (stereo unspecified)
  IC50: 1.96 µg/mL (≈ 5.97 µM)
[1]
  IC50: 1.44 µg/mL (≈ 4.38 µM)

## COc1cccc(Oc2ccc(/C(=N/O)NC3CCCCC3)cn2)c1
[1]
  IC50: 1.23 µg/mL (≈ 3.6 µM)

## O/N=C(/c1ccc(Oc2ccc(Cl)cc2)nc1)N1CCC2CCCCC2C1 (stereo unspecified)
[1]
  IC50: 1.24 µg/mL (≈ 3.21 µM)

## Cc1ccc(/C(=N/O)NCc2ccccc2F)c(Oc2cc(Cl)ccc2Cl)n1
[1]
  IC50: > 5 µg/mL

## CC(C)(C)c1ccc(-c2nc(CNCC3CC3)co2)cc1
  IC50: 1.69 µg/mL (≈ 5.94 µM)
[1]
  IC50: 1.22 µg/mL (≈ 4.29 µM)

## C[C@@H]1C(NCc2coc(-c3cccc4ccccc34)n2)C[C@H]2C[C@@H]1C2(C)C (stereo partly specified)
[1]
  IC50: 0.94 µg/mL (≈ 2.61 µM)

## COc1ccccc1CN/C(=N\O)c1ccc(C)nc1Oc1cc(Cl)ccc1Cl
[1]
  IC50: 3.98 µg/mL (≈ 9.21 µM)

## CC(C)c1cccc(Oc2ccc(/C(=N/O)NCc3ccncc3)cn2)c1
[1]
  IC50: 2.64 µg/mL (≈ 7.28 µM)

## CC(C)c1cccc(Oc2ccc(/C(=N/O)N(C)Cc3cccnc3)cn2)c1
[1]
  IC50: 2.5 µg/mL (≈ 6.64 µM)

## O/N=C(\NCc1cccs1)c1ccc(Oc2cccc(F)c2)nc1
[1]
  IC50: 1.93 µg/mL (≈ 5.62 µM)

## CCC(CC)N/C(=N\O)c1ccc(Oc2cc(Cl)ccc2Cl)nc1
[1]
  IC50: 1.35 µg/mL (≈ 3.67 µM)

## Cc1ccc([C@@H](C)NCc2coc(-c3cccc4ccccc34)n2)cc1
[1]
  IC50: 1.86 µg/mL (≈ 5.43 µM)

## CC1(C)[C@H]2CC[C@@H](CNCc3coc(-c4ccc(F)cc4)n3)[C@@H]1C2
[1]
  IC50: > 5 µg/mL

## CN(Cc1coc(-c2cccc3ccccc23)n1)C1CCCCC1
  IC50: 1.3 µg/mL (≈ 4.06 µM)
[1]
  IC50: 2.01 µg/mL (≈ 6.27 µM)

## O/N=C(\NCC1CCCCC1)c1ccc(Oc2ccc(Cl)cc2)nc1
[1]
  IC50: 1.6 µg/mL (≈ 4.45 µM)

## CCN(CCN(C)C)Cc1coc(-c2ccc(C(C)(C)C)cc2)n1
  IC50: 1.87 µg/mL (≈ 5.68 µM)
[1]
  IC50: 3.09 µg/mL (≈ 9.38 µM)

## COc1ccc(-c2nc(CNCCCN3CCCCC3C)co2)cc1 (stereo unspecified)
[1]
  IC50: > 5 µg/mL

## COc1cccc(Oc2ccc(/C(=N/O)NCC3CCCCC3)cn2)c1
[1]
  IC50: 2.15 µg/mL (≈ 6.05 µM)

## C=CCc1ccc(Oc2ccc(/C(=N/O)NCc3ccncc3)cn2)c(OC)c1
[1]
  IC50: 2.1 µg/mL (≈ 5.38 µM)

## O/N=C(\NCC1CCCCC1)c1ccc(Oc2cc(Cl)ccc2Cl)nc1
[1]
  IC50: 2.81 µg/mL (≈ 7.13 µM)

## CCC(CC)N/C(=N\O)c1ccc(Oc2ccc(Cl)cc2)nc1
[1]
  IC50: 1.63 µg/mL (≈ 4.88 µM)

## CCC1CCCCN1Cc1coc(-c2cccc3ccccc23)n1 (stereo unspecified)
  IC50: 1.83 µg/mL (≈ 5.71 µM)
[1]
  IC50: 2.13 µg/mL (≈ 6.65 µM)

## Clc1ccc(-c2nc(CNCCCn3ccnc3)co2)c(Cl)c1
[1]
  IC50: 2.02 µg/mL (≈ 5.75 µM)

## Cc1ccc(/C(=N/O)NCC(C)C)c(Oc2cccc(F)c2)n1
[1]
  IC50: 1.37 µg/mL (≈ 4.32 µM)

## CC(NCc1coc(-c2cccc3ccccc23)n1)C1CCCCC1 (stereo unspecified)
  IC50: 1.7 µg/mL (≈ 5.08 µM)
[1]
  IC50: 1.34 µg/mL (≈ 4.01 µM)

## CCN(CC)CCCC(C)NCc1coc(-c2ccccc2Cl)n1 (stereo unspecified)
[1]
  IC50: > 5 µg/mL

## c1ccc2c(-c3nc(CNCCCN4CCCC4)co3)cccc2c1
[1]
  IC50: 0.62 µg/mL (≈ 1.85 µM)

## Cc1ccc(/C(=N/O)NCc2cc(F)cc(F)c2)c(Oc2cc(Cl)ccc2Cl)n1
[1]
  IC50: 2.52 µg/mL (≈ 5.75 µM)

## COc1cccc(Oc2ccc(/C(=N/O)NC3CCC(C)CC3)cn2)c1 (stereo unspecified)
[1]
  IC50: 1.97 µg/mL (≈ 5.54 µM)

## CC1CCCCN1CCCNCc1coc(-c2cccc3ccccc23)n1 (stereo unspecified)
[1]
  IC50: 2.07 µg/mL (≈ 5.69 µM)

## C[C@H]1C(NCc2coc(-c3cccc4ccccc34)n2)C[C@@H]2C[C@H]1C2(C)C (stereo partly specified)
[1]
  IC50: 0.9 µg/mL (≈ 2.5 µM)

## CC(C)(C)CNCc1coc(-c2ccc(C(C)(C)C)cc2)n1
  IC50: 2.86 µg/mL (≈ 9.52 µM)
[1]
  IC50: 1.62 µg/mL (≈ 5.39 µM)

## O/N=C(\NC1CCCCC1)c1ccc(Oc2cc(Cl)ccc2Cl)nc1
[1]
  IC50: 1.3 µg/mL (≈ 3.42 µM)

## CCOc1cccc(-c2nc(CNCCC3CCCN3C)co2)c1 (stereo unspecified)
  IC50: 1.78 µg/mL and 4.05 µg/mL

## Cc1ccc(/C(=N/O)NCC(C)(C)C)c(Oc2cccc(F)c2)n1
[1]
  IC50: 0.45 µg/mL (≈ 1.36 µM)

## COc1ccc(-c2nc(CNC[C@@H]3CC[C@H]4C[C@@H]3C4(C)C)co2)cc1
[1]
  IC50: 1.31 µg/mL (≈ 3.85 µM)

## C[C@@H]1C(NCc2coc(-c3ccccc3Br)n2)C[C@H]2C[C@@H]1C2(C)C (stereo partly specified)
  IC50: 1.95 µg/mL (≈ 5.01 µM)
[1]
  IC50: 1.22 µg/mL (≈ 3.13 µM)

## O/N=C(\NC1CCCC1)c1ccc(Oc2ccc(Cl)cc2)nc1
[1]
  IC50: 1.32 µg/mL (≈ 3.98 µM)
